Five molecules from patent US4287194A, “Compositions with potentiated hypotensive effects” (priority 1978, dated 1981) can be followed below.

Where “and” joins values, the source holds several entries; their conditions need not be identical. Identical values can stand only once.

Data set [1] deals with genetically hypertensive awake rats. The data set is described as follows: Hypotensive effect on awake rats suffering from genetic hypertension (method of Eaton, modified). The class given is in vivo, Wistar-Okamoto rats.
A short description of data set [2]: Oral acute toxicity (LD50) of the individual components, one week observation. The note with it: mouse, in vivo. The procedure: Based on the data given in points 1 and 2 above it can be stated that a considerable potentiating synergism appears with respect to the hypotensive effect when applying the compounds of formula (I) in combination with those of formula (V). In the following it was investigated whether this synergism also appears with respect to the toxicity. In the first test series the LD50 values of the individual components were determined on CFLP-mice. The compounds were administered orally, and the animals were kept under observation for one week. The LD50 values of the individual compounds are as follows: […]

Data set [3] concerns awake dogs with renal hypertension. The data set is described as follows: Hypotensive effect on awake dogs suffering from renal hypertension (Grollman operation). In kind it is in vivo. An excerpt:
(2) Determination of the hypotensive effect on awake dogs suffering from renal hypertension

The nature of data set [4]: Toxicity (mortality) of combinations: pre-treatment for one hour with 11,473 or 11,121, then pindolol. Set-up: species or system CFLP-mice. As to conditions: mouse, in vivo, po. The procedure:
Based on the data given in points 1 and 2 above it can be stated that a considerable potentiating synergism appears with respect to the hypotensive effect when applying the compounds of formula (I) in combination with those of formula (V). In the following it was investigated whether this synergism also appears with respect to the toxicity. In the first test series the LD50 values of the individual components were determined on CFLP-mice. The compounds were administered orally, and the animals were kept under observation for one week. The LD50 values of the individual compounds are as follows:
To determine the toxicity values of the combinations dosages calculated on the basis of the isobole construction principle were applied. The animals were pre-treated for one hour with various dosages of 11,473 or 11,121, and then varying dosages of pindolol were administered.

For the molecule `Cl.NOCc1ccc([N+](=O)[O-])c(O)c1` [11,130, 3-hydroxy-4-nitro-benzyloxyamine hydrochloride], in data set [1] (20 mg/kg p.o.), the “Blood pressure after 2 hours” value was 183.0 mmHg, the “Blood pressure after 5 hours” value came out at 176.0 mmHg and the “Blood pressure after 24 hours” value is 172.0 mmHg. In data set [1] (20 mg/kg p.o., basal value), the “Blood pressure, basal value” turned out to be 174.0 mmHg.

Consider `CCOC(=O)CC(C)=NNc1ccc(Cl)nn1` [11,473, N^1-(3-Chloro-6-pyridazinyl)-N^2-(1-carbethoxy-2-propylidene)-hydrazine], for which, in data set [1] (10 mg/kg p.o.), the “Blood pressure after 2 hours” value is recorded as 194.0 mmHg, the “Blood pressure after 5 hours” value is given as 197.0 mmHg and the “Blood pressure after 24 hours” value was determined as 198.0 mmHg. Further, in data set [1] (10 mg/kg p.o., basal value), the “Blood pressure, basal value” is recorded as 195.0 mmHg. In data set [2] (p.o., one week observation), the LD50 at 168 h came out at 360 mg/kg.

As to `CC(C)NCC(O)COc1cccc2[nH]ccc12.Cl` (stereo not drawn) [Pindolol, 1-(4-indolyloxy)-3-isopropylamino-2-propanol hydrochloride], the “Blood pressure after 2 hours” value was 180.8 mmHg and 181.6 mmHg in data set [1] (0.25 mg/kg p.o., hydrochloride); 161.4 mmHg and 191.2 mmHg and 172.1 mmHg in data set [1] (0.5 mg/kg p.o., hydrochloride); 135.0 mmHg in data set [1] (1 mg/kg p.o.); 154.5 mmHg in data set [1] (5 mg/kg p.o.); 133.3 mmHg in data set [3] (0.1 mg/kg p.o.). The “Blood pressure after 5 hours” value is 164.9 mmHg and 168.8 mmHg in data set [1] (0.25 mg/kg p.o., hydrochloride); 160.5 mmHg and 188.3 mmHg and 160.8 mmHg in data set [1] (0.5 mg/kg p.o., hydrochloride); 135.0 mmHg in data set [1] (1 mg/kg p.o.); 124.5 mmHg in data set [1] (5 mg/kg p.o.); 160.0 mmHg in data set [3] (0.1 mg/kg p.o.). Moreover, the “Blood pressure after 24 hours” value was 183.4 mmHg and 188.8 mmHg in data set [1] (0.25 mg/kg p.o., hydrochloride); 150.5 mmHg and 188.9 mmHg and 188.6 mmHg in data set [1] (0.5 mg/kg p.o., hydrochloride); 151.1 mmHg in data set [1] (1 mg/kg p.o.); 161.0 mmHg in data set [1] (5 mg/kg p.o.); 153.3 mmHg in data set [3] (0.1 mg/kg p.o.). In addition, the “Blood pressure, basal value” in data set [1] (0.25 mg/kg p.o., basal value (before treatment), hydrochloride) was 182.2 mmHg and 184.4 mmHg; in data set [1] (0.5 mg/kg p.o., basal value, hydrochloride), 165.0 mmHg and 200.0 mmHg and 200.3 mmHg; in data set [1] (1 mg/kg p.o., basal value), 164.4 mmHg; in data set [1] (5 mg/kg p.o., basal value), 172.5 mmHg; in data set [3] (0.1 mg/kg p.o.) it was 156.7 mmHg. Besides, the ED30 in data set [1] (Rattus norvegicus, po, read-out: ED30% (dosage which decreases the blood pressure by 30% related to the value before treatment), p.o., given alone) is roughly 5 mg/kg. Further, in data set [1] (p.o., given alone, hydrochloride), the “ED30% (dosage which decreases the blood pressure by 30% related to the value before treatment)” value was 5 mg/kg. For the same molecule, the “Blood pressure after 1 hour” value in data set [3] (0.1 mg/kg p.o.) was determined as 133.3 mmHg. Also, the “Blood pressure after 3 hours” value in data set [3] (0.1 mg/kg p.o.) turned out to be 153.0 mmHg. In addition, the “Blood pressure after 4 hours” value in data set [3] (0.1 mg/kg p.o.) was 156.7 mmHg. Also, in data set [2], the 50% lethal dose (LD50) at 168 h is 300 mg/kg. The mortality is 0% in data set [4] (pindolol alone 60 mg/kg p.o.); 0% in data set [4] (pindolol alone 90 mg/kg p.o.); 8% in data set [4] (pindolol alone 135 mg/kg p.o.); 16% in data set [4] (pindolol alone 200 mg/kg p.o.); 46% in data set [4] (pindolol alone 300 mg/kg p.o.); 75% in data set [4] (pindolol alone 450 mg/kg p.o.).

On to `CC(C)NCC(O)COc1cccc2ccccc12.Cl` (stereo not drawn) [Propranolol, 1-(1-Naphthyloxy)-3-isopropylamino-2-propanol hydrochloride], for which the “Blood pressure after 2 hours” value in data set [1] (1 mg/kg p.o.) turned out to be 170.0 mmHg; in data set [1] (5 mg/kg p.o.), 178.6 mmHg; in data set [1] (10 mg/kg p.o.) it was 170.0 mmHg. The “Blood pressure after 5 hours” value in data set [1] (1 mg/kg p.o.) is recorded as 168.7 mmHg; in data set [1] (5 mg/kg p.o.), 175.9 mmHg; in data set [1] (10 mg/kg p.o.) it was 148.3 mmHg. Further, the results for the “Blood pressure after 24 hours” value in data set [1] (1 mg/kg p.o.), in data set [1] (5 mg/kg p.o.) and in data set [1] (10 mg/kg p.o.) were 157.5 mmHg, 181.8 mmHg and 163.7 mmHg, respectively. Moreover, the “Blood pressure, basal value” stood at 167.5 mmHg in data set [1] (1 mg/kg p.o., basal value); 186.4 mmHg in data set [1] (5 mg/kg p.o., basal value); 178.0 mmHg in data set [1] (10 mg/kg p.o., basal value). The molecule also registered an ED15 in data set [1] (Rattus norvegicus, po) of roughly 10 mg/kg.

For `COC(=O)c1ccc(O)c(CON)c1.Cl` [11,121, 2-hydroxy-5-carbomethoxy-benzyloxyamine hydrochloride], in data set [1] (50 mg/kg p.o.), the “Blood pressure after 2 hours” value was determined as 170.0 mmHg, the “Blood pressure after 5 hours” value was 163.0 mmHg and the “Blood pressure after 24 hours” value came to 169.0 mmHg. In addition, the “Blood pressure, basal value” in data set [1] (50 mg/kg p.o., basal value) was 168.2 mmHg. Besides, in data set [3] (5 mg/kg p.o.), the “Blood pressure after 1 hour” value was found to be 170.0 mmHg, the “Blood pressure after 2 hours” value was determined as 167.5 mmHg, the “Blood pressure after 3 hours” value is recorded as 175.0 mmHg and the “Blood pressure after 4 hours” value is recorded as 165.0 mmHg. In data set [3] (5 mg/kg p.o.), the “Blood pressure after 5 hours” value is 172.5 mmHg; the “Blood pressure after 24 hours” value turned out to be 165.0 mmHg; the “Blood pressure, basal value” is 165.0 mmHg. For the same molecule, the median lethal dose (LD50) at 168 h in data set [2] (p.o., one week observation) is 2900 mg/kg.

Broadly, the LD50 is the dose at which mortality reaches 50%. Usually mortality stands for the percentage killed.
